From US11661437B2, “Steroid derivative regulators, method for preparing the same, and uses thereof” (priority 2018, dated 2023)

Tests used:
[1] = tested on: ICR mice; experiment: In vivo pharmacodynamic test in the forced swimming model in mice; settings: for Mean (immobility, %) / Mean (immobility, s): 10 mpk p.o.; for Mean (immobility, %): floating time percentage = 100*floating time/240 s; for Mean (immobility, s): latter four minutes of 6 min swim
Description: The antidepressant effect of the compound was evaluated by the forced swimming model in mice.
Male ICR mice (25-35 g) were adapted in the test environment for 3 days before the forced swimming test.
According to the test design, the mice were randomly grouped on the day before the test according to body weight, with 12 mice in each group. Before the test, the compounds of each example were administrated intragastrically according to the Tmax thereof in the brain in mice pharmacokinetic test as follows:
1) Model group (0.5% CMC-Na+1% Tween 80 solution, p.o., 10 mL/kg);
2) Compounds of Example 2, Example 5, Example 7, Example 18, Example 23, Example 26 and Example 50 (10 mg/kg, p.o., 10 mL/kg).
When being administrated, the compounds of each example were suspended in 0.5% CMC-Na-1% Tween 80 solution to the desired concentration.
0.5-1 hour after administration, ICR mice were placed in a forced swimming device (transparent glass drum (water depth 18 cm, water temperature 25-26° C.), one mouse per tank) and forced to swim for 6 minutes. The forced swimming device recorded the floating time of the ICR mice during the entire 6 minutes, and the data of the latter four minutes were used for data analysis. The mice were taken out immediately after the swimming test, wiped dry and put back in their original cages.
Note: The criterion for determining the immobility time is that the mouse stops struggling in water and floats, and there are only slight limb movements to keep the head floating on the water.
3.4 Data Analysis Floating time percentage=100*floating time/240 s.

[2] = tested on: GABA-A receptor; experiment: 35S-TBPS binding assay on rat cerebral cortex cell membrane; set-up: species or system Sprague-Dawley rat; settings: 2 nM 35S-TBPS, GABA added, read-out: 35S-TBPS bindng test, IC50 on inhibiting the TBPS binding activity
How it was run: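 Male Sprague-Dawley rat cortical membranes in PBS were preincubated 5 min at 25 °C with compound (8-point 3-fold series […], 1% DMSO), then with GABA ([…]). 2 nM 35S-TBPS was added for 20 h at 4 °C, followed by GF/C filtration and scintillation counting. % inhibition was normalised to DMSO and 10 μM reference controls, with IC50 from a 4-parameter fit.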

[3] = Pharmacokinetic assay in Balb/c mice (plasma and brain tissue); assay type: in vivo; settings: male, Balb/c, mouse, in vivo, po, 5 mg/kg; for AUC(0-t): Area under curve AUC0-t; for AUC(0-inf): Area under curve AUC0-∞; for half-life: Half-life t1/2; for MRT: Mean residence time MRT; for Tmax: Peak time tmax; for Cmax: Plasma concentration Cmax
Description: Balb/c mice were used as test animals. The pharmacokinetic behavior in mice (plasma and brain tissue) of the compounds of Example 2, Example 5, Example 7, Example 12, Example 18, Example 23, Example 26, Example 38, Example 41, Example 50, Example 51 and Example 66 orally administrated at a dose of 5 mg/kg was studied.
Each group had 24 male Balb/c mice. After an overnight fast, Balb/c mice were administrated p.o. with the test compound at an administration dose of 5 mg/kg and an administration volume of 10 mL/kg.
0.2 ml of blood was taken from the heart before administration and at 0, 0.5, 1, 2, 4, 6, 8 and 24 hours after administration. The samples were stored in EDTA-K2 tubes, and centrifuged for 6 minutes at 4° C., 6000 rpm to separate the plasma. The plasma samples were stored at −80° C. The mice were sacrificed with CO2, and the whole brain tissue was taken out, weighed, placed in a 2 mL centrifuge tube and stored at −80° C.
1) 160 μL of acetonitrile was added to 40 μL of the plasma sample for precipitation, and then the mixture was centrifuged for 5-20 minutes at 3500×g.
2) 90 μL of acetonitrile containing the internal standard (100 ng/mL) was added to 30 μL of the plasma and brain homogenate samples for precipitation, and then the mixture was centrifuged for 8 minutes at 13000 rpm.
3) 70 μL of the treated supernatant was taken and added to 70 μL of water, and mixed by vortex for 10 minutes. 20 μL of the mixture was taken to analyze the concentration of the test compound by LC/MS/MS. LC/MS/MS analysis instrument: AB Sciex API 4000 Qtrap.
2.6 Liquid Chromatography Analysis • Liquid chromatography condition: Shimadzu LC-20AD pump. • Chromatographic column: Agilent ZORBAX XDB-C18 (50×2.1 mm, 3.5 μm); Mobile phase: Eluent A was 0.1% formic acid in water, and Eluent B was acetonitrile. • Flow rate: 0.4 mL/min • Elution time: 0-4.0 minutes the eluent is as follows:
The main parameters of pharmacokinetics were calculated by WinNonlin 6.1.

Q: With `C[C@@]1(O)CC[C@@]2(F)[C@H](CC[C@H]3[C@@H]4CC[C@H](C(=O)Cn5nc6ccc(F)cc6n5)[C@@]4(C)CC[C@@H]32)C1` [Example 18, 2-(5-Fluoro-2H-benzo[d][1,2,3]triazol-2-yl)-1-((3R,5R,8S,9S,10R,13S,14S,17S)-10-fluoro-3-hydroxy-3,13-dimethylhexadecahydro-1H-cyclopenta[a]phenanthren-17-yl)ethan-1-one] as the compound, how does the “Mean (immobility, %)” value [1] read?
A: 61.19%

Q: And the “Mean (immobility, s)” value [1]?
A: 146.86 s

Q: What about the IC50 [2] of the same compound?
A: 10 nM

Q: And the “Area under curve AUC0-t” value [3]?
A: 2141.1 ng·h/mL

Q: And the “Area under curve AUC0-∞” value [3]?
A: 2186.8 ng·h/mL

Q: And the “Half-life t1/2” value [3]?
A: 4.7 h

Q: And the “Mean residence time MRT” value [3]?
A: 6.1 h

Q: What about the “Plasma concentration Cmax” value [3] of the same compound?
A: 281.7 ng/mL

Q: What about the AUC(0-t) [3] of the same compound?
A: 1520 ng·h/mL

Q: What about the AUC(0-inf) [3] of the same compound?
A: 1540 ng·h/mL

Q: What about the half-life [3] of the same compound?
A: 4.2 h

Q: And the MRT [3]?
A: 5.5 h

Q: And the Tmax [3]?
A: 1 h

Q: What about the Cmax [3] of the same compound?
A: 236 ng/mL

Q: Which results are given for `C[C@@]1(O)CC[C@]2(F)C3CC[C@]4(C)[C@@H](C(=O)CNc5ccc(F)cc5F)CC[C@H]4[C@@H]3CC[C@@H]2C1` (stereo partly drawn) [Example 26, 2-((2,4-Difluorophenyl)amino)-1-((3R,5R,8S,10R,13S,14S,17S)-10-fluoro-3-hydroxy-3,13-dimethylhexadecahydro-1H-cyclopenta[a]phenanthren-17-yl)ethan-1-one]?
A: Mean (immobility, %) [1]: 53.46%; Mean (immobility, s) [1]: 128.30 s; IC50 [2]: 10.5 nM; Area under curve AUC0-t [3]: 722.9 ng·h/mL; Area under curve AUC0-∞ [3]: 828.4 ng·h/mL; Half-life t1/2 [3]: 2.06 h; Mean residence time MRT [3]: 3.84 h; Plasma concentration Cmax [3]: 172.3 ng/mL; AUC(0-t) [3]: 767 ng·h/mL; AUC(0-inf) [3]: 772 ng·h/mL; half-life [3]: 2.57 h; MRT [3]: 4.08 h; Tmax [3]: 0.5 h; Cmax [3]: 232 ng/mL

Q: Which results are given for `C[C@@]1(O)CC[C@@]2(F)[C@H](CC[C@H]3[C@@H]4CC[C@H](C(=O)Cn5nc(C#N)cc5C#N)[C@@]4(C)CC[C@@H]32)C1` [Example 50, 1-(2-((3R,5R,8S,9S,10R,13S,14S,17S)-10-Fluoro-3-hydroxy-3,13-dimethylhexadecahydro-1H-cyclopenta[a]phenanthren-17-yl)-2-oxoethyl)-1H-pyrazole-3,5-dicarbonitrile]?
A: immobility time during the latter four minutes compared with that of the model group ([1]; 10 mg/kg p.o.): very significantly different; Mean (immobility, %) [1]: 42.11%; Mean (immobility, s) [1]: 101.07 s; IC50 [2]: 12.5 nM; Half-life t1/2 [3]: 1.10 h; Mean residence time MRT [3]: 2.48 h; half-life [3]: 1.11 h; MRT [3]: 2.36 h; Tmax [3]: 1 h
